This is an account of results in patent US9346769B2, “Tetrazolones as inhibitors of fatty acid synthase” (Infinity Pharmaceuticals, Inc., priority 2010, dated 2016).

T1 sequence (P49327 whole entry): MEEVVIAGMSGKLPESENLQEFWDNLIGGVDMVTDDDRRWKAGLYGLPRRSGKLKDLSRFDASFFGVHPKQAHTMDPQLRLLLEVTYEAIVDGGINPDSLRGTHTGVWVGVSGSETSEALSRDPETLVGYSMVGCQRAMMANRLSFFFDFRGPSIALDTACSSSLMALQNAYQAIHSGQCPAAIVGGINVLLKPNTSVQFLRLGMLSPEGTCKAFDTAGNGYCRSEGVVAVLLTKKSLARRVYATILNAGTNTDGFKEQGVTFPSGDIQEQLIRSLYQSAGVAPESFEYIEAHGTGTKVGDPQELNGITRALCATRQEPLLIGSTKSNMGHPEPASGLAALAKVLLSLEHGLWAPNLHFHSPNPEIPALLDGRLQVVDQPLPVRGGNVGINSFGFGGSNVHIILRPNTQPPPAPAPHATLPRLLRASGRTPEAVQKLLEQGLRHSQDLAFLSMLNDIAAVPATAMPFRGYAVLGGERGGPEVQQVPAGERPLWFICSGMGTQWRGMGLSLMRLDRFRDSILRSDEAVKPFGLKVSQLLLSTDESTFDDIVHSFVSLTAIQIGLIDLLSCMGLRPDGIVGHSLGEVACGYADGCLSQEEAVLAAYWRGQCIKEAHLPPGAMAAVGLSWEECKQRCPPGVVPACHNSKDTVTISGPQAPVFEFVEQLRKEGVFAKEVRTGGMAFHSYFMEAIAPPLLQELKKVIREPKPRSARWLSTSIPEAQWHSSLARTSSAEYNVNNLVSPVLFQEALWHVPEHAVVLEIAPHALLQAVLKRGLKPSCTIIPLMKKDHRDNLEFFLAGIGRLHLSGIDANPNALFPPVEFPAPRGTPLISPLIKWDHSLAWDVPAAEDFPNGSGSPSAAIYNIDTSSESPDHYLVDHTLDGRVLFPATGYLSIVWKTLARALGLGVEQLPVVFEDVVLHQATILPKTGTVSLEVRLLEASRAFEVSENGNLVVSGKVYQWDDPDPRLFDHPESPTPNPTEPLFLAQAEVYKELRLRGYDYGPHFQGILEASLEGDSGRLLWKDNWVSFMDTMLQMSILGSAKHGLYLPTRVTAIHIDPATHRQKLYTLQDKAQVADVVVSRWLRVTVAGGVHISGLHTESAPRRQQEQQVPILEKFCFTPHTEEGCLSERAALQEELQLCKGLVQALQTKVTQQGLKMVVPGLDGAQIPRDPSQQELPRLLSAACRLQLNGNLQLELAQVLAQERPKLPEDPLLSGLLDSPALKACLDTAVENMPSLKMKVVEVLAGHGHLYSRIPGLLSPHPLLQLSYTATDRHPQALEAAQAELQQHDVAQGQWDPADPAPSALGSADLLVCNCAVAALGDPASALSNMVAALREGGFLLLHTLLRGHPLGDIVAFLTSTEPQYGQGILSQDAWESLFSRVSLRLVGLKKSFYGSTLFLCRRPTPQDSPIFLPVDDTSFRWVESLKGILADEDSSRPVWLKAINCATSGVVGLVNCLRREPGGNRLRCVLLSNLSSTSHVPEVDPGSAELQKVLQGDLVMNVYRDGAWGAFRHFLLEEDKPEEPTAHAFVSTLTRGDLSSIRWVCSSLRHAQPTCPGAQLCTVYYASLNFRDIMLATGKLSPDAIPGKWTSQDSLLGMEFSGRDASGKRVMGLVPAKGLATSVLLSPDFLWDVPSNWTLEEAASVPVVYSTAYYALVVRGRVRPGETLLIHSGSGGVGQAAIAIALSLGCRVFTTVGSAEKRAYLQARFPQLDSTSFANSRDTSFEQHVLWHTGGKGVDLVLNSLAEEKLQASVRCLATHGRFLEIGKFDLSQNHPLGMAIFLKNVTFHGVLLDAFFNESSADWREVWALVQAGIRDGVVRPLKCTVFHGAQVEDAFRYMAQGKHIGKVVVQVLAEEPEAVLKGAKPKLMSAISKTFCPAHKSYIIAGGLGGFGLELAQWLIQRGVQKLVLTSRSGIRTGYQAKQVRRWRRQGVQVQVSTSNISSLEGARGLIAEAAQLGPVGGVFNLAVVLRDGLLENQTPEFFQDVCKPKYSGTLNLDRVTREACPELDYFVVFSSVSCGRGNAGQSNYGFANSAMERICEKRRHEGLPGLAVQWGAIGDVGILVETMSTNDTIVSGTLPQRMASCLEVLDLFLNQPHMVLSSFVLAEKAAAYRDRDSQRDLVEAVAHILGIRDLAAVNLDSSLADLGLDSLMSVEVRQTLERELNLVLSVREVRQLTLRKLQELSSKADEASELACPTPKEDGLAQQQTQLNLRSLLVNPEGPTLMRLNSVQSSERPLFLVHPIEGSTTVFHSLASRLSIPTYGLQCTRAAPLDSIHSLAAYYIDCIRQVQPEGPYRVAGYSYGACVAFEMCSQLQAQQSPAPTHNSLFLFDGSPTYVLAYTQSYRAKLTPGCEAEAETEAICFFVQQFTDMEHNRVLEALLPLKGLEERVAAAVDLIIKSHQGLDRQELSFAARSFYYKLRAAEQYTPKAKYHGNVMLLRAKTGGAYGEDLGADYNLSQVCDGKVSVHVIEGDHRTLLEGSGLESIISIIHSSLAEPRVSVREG

This test has as its target T1, human FASN (Homo sapiens, UniProt P49327).
T1 construct: was purified from SKBR3 cells using procedures modified from those in Jayakumar et al; endogenous in cells; host or cells: SKBR3 human breast cancer cells (ATCC); Endogenous enzyme purified by ammonium sulfate precipitation and a mono Q column
The experiment in a line: FASN NADPH Consumption Assay. Format: biochemical. The settings on record: human FASN purified from SKBR3 cells; starred symbols. As to the method: Human FASN protein (SEQ ID NO. 1) was purified from SKBR3 cells using procedures modified from those in Jayakumar et al. PNAS 1995, 92:8695-8699. SKBR3 cells were obtained from ATCC and grown in DMEM high glucose medium supplemented with 10% FBS, 1 μg/mL bovine pancreas insulin, 100 U/mL penicillin and 100 µg/mL streptomycin. The confluent cells were trypsinized and washed three times with PBS buffer before frozen in liquid N2 and stored at −80° C. Frozen cells were thawed on ice and resuspended in lysis buffer (25 mM Tris-HCl, pH 7.0, 15 mM NaCl, 1 mM EDTA, and 1 mM DTT) with protease inhibitors. The cells were lysed by sonication, and the cell debris was removed by centrifugation at 20,000 rpm for 30 min. To the supernatant, neutralized saturated ammonium sulfate solution was added to a final concentration of 35%. The solution was left on ice for 1 hr, and the precipitated proteins were harvested by centrifugation at 20,000 rpm for 30 min. The proteins were redissolved in lysis buffer without NaCl and loaded on a mono Q column. Bound proteins were eluted with a linear gradient of NaCl in lysis buffer. Each fraction was analyzed by SDS-PAGE and FASN NADPH consumption assay. The fractions containing FASN were pooled and concentrated to 2-3 mg/mL. Glycerol was added to 20%, and the protein was frozen in liquid N2 and stored at −80° C.
All chemicals were purchased from Sigma (St. Louis, Mo.). The procedures of NADPH consumption assay were similar to those described in Cox et al., PNAS 1983, 80:4233-4237. On a 96-well polypropylene microplate, dilution series (typical concentrations 60 nM-1.0 mM) of test compounds were prepared in DMSO, of which 4.0 μL each was transferred to a black polystyrene assay microplate and mixed with 36 μL FASN assay buffer (50 mM potassium phosphate, pH 7.0, 1.0 mM EDTA, 0.01% NP-40) plus 5.0 mM fresh DTT. FASN protein (40 μL 150 nM FASN) was added per well, and the microplate was incubated at 37° C. for 30 min. Enzyme activity measurement was initiated by addition of 20 μL 5× substrate mixture to final concentrations of 60 nM FASN, 2.4 nM-40 μM compound, 0.2 mM NADPH, 50 μM butyryl-CoA, 0.5 mM malonyl-CoA in 100 μL assay buffer plus 5.0 mM DTT and 4.0% DMSO. NADPH consumption was monitored kinetically by fluorescence (λEx=340 nm, λEm=460 nm) on an EnVision 2100 multilabel plate reader (Perkin Elmer, Waltham, Mass.). FASN enzyme activity (slope) in the presence of 4% DMSO was used as maximum control, whereas background (minimum control) was measured by omission of malonyl-CoA in the substrate mixture. Inhibition curves were fitted by a logistic function to yield IC50 values:
Compounds were assayed as inhibitors of human FASN using the above-described FASN Scintillation Proximity Flashplate Assay (IC50; nM) or FASN NADPH Consumption Assay (*) (IC50; nM). The corresponding activity of the isolated compound is also provided along with the measured mass (ES^+).
`CCN(C(=O)n1nnn(-c2ccccc2)c1=O)c1ccc(C(=O)O)c(OC)c1` came in with a concentration for half-maximal inhibition (IC50) of 60 to 250 nM.
Then `CCN(C(=O)n1nnn(-c2ccccc2Oc2ccccc2)c1=O)c1ccccc1F`, with 60 to 250 nM; and `O=C(N(c1ccccc1)c1ccccc1)n1nnn(-c2ccccc2Oc2ccccc2)c1=O`, with 60 to 250 nM; and `CCN(C(=O)n1nnn(-c2ccccc2-c2ccccc2)c1=O)c1ccccc1F`, with 60 to 250 nM.
`CCN(C(=O)n1nnn(-c2ccccc2OC)c1=O)c1ccc(OC)c(C(=O)O)c1` showed a concentration for half-maximal inhibition (IC50) of 250 to 1000 nM.
Then `CCCCCCN(C(=O)n1nnn(-c2ccccc2OC)c1=O)c1cc(C(=O)OCc2ccccc2)ccc1OC`, with 1000 to 10000 nM; and `CCN(C(=O)n1nnn(-c2ccccc2OC)c1=O)c1ccc(C(=O)O)cc1`, with 60 to 250 nM.
The figure for `CCN(C(=O)n1nnn(-c2ccccc2OC)c1=O)c1cc(C(=O)O)ccc1OC` is 60 to 250 nM; for `COc1ccc(C(=O)OCc2ccccc2)cc1N(CCCCc1ccccc1)C(=O)n1nnn(-c2ccccc2OC)c1=O` it is 1000 to 10000 nM.
The figure for `COc1ccc(C(=O)O)cc1N(CCCCc1ccccc1)C(=O)n1nnn(-c2ccccc2OC)c1=O` is 250 to 1000 nM; for `COc1cccc(N(C)C(=O)n2nnn(-c3c(F)cccc3F)c2=O)c1` it is 60 to 250 nM.
As to `O=C(N(c1ccccc1)c1ccccc1)n1nnn(-c2c(F)cccc2F)c1=O`, the IC50 lay within 60 to 250 nM.
Then `CCN(C(=O)n1nnn(-c2c(F)cccc2F)c1=O)c1ccc(Cl)cc1`, with 60 to 250 nM.
Then `CN(C(=O)n1nnn(-c2c(F)cccc2F)c1=O)c1ccccc1Br`, with 60 to 250 nM; and `CCN(C(=O)n1nnn(-c2c(F)cccc2F)c1=O)c1c(F)cccc1Cl`, with 60 to 250 nM.
With `CN(C(=O)n1nnn(-c2c(F)cccc2F)c1=O)c1ccccc1F`, the IC50 lay in the range of 60 to 250 nM.
Then `CN(C(=O)n1nnn(-c2c(F)cccc2F)c1=O)c1cccc(Br)c1`, with 60 to 250 nM.
The figure for `CCN(C(=O)n1nnn(-c2c(F)cccc2F)c1=O)c1cccc(F)c1F` is less than 60 nM.
Molecule `CCN(C(=O)n1nnn(-c2c(F)cccc2F)c1=O)c1ccc(C)cc1` yielded an IC50 of 60 to 250 nM.
`C=CCN(C(=O)n1nnn(-c2c(F)cccc2F)c1=O)c1ccccc1` had an IC50 of less than 60 nM.
Then `CCN(C(=O)n1nnn(-c2c(F)cccc2F)c1=O)c1cc(F)ccc1F`, with less than 60 nM; and `CCN(C(=O)n1nnn(-c2c(F)cccc2F)c1=O)c1ccccc1C`, with 60 to 250 nM.
The figure for `CCN(C(=O)n1nnn(-c2c(F)cccc2F)c1=O)c1ccc(C(=O)OCc2ccccc2)cc1` is 60 to 250 nM; for `CN(C(=O)n1nnn(-c2c(F)cccc2F)c1=O)c1cc(F)cc(F)c1` it is 60 to 250 nM.
Then `CCCN(C(=O)n1nnn(-c2c(F)cccc2F)c1=O)c1ccccc1`, with 60 to 250 nM; and `CCN(C(=O)n1nnn(-c2c(F)cccc2F)c1=O)c1ccccc1`, with less than 60 nM.
Regarding `CCN(C(=O)n1nnn(-c2c(F)cccc2F)c1=O)c1cccc2ccccc12`, the IC50 fell in the range of 60 to 250 nM.
Take `CCN(C(=O)n1nnn(-c2c(F)cccc2F)c1=O)c1ccc([N+](=O)[O-])cc1`: the 50% inhibitory concentration (IC50) was in the range of 60 to 250 nM.
As for `CN(C(=O)n1nnn(-c2c(F)cccc2F)c1=O)c1ccccc1`, the IC50 fell in the range of 60 to 250 nM.
Then `CCCCC#Cc1ccc(N(CC)C(=O)n2nnn(-c3c(F)cccc3F)c2=O)c(F)c1`, with 60 to 250 nM; and `CC(C)N(C(=O)n1nnn(-c2c(F)cccc2F)c1=O)c1cccc(C(=O)OCc2ccccc2)c1`, with less than 60 nM; and `CCN(C(=O)n1nnn(-c2c(F)cccc2F)c1=O)c1ccc(C(=O)OCc2ccccc2)c(OC)c1`, with 60 to 250 nM.
The figure for `CCN(C(=O)n1nnn(-c2c(F)cccc2F)c1=O)c1ccc(C(=O)O)cc1` is less than 60 nM.
Then `COc1ccc(C(=O)O)cc1N(CCCCc1ccccc1)C(=O)n1nnn(-c2c(F)cccc2F)c1=O`, with 60 to 250 nM.
The molecule `CCN(C(=O)n1nnn(-c2c(F)cccc2F)c1=O)c1ccc(C(=O)NC(C)C)cc1F` returned a concentration for half-maximal inhibition (IC50) of less than 60 nM.
As for `CCN(C(=O)n1nnn(-c2c(F)cccc2F)c1=O)c1ccc(C#Cc2ccccc2)cc1F`, the IC50 lay within 60 to 250 nM.
Then `COc1ccc(C(=O)O)cc1N(CCCc1ccccc1)C(=O)n1nnn(-c2c(F)cccc2F)c1=O`, with 60 to 250 nM; and `CCN(C(=O)n1nnn(-c2c(F)cccc2F)c1=O)c1ccc(N(S(C)(=O)=O)S(C)(=O)=O)cc1F`, with less than 60 nM.
Then `CN(C(=O)n1nnn(-c2c(F)cccc2F)c1=O)c1ccc(Br)cc1`, with 60 to 250 nM.
Then `CC(C)N(C(=O)n1nnn(-c2c(F)cccc2F)c1=O)c1ccccc1`, with 60 to 250 nM; and `CN(C(=O)n1nnn(-c2c(F)cccc2F)c1=O)c1cccc(F)c1`, with 60 to 250 nM; and `CN(C(=O)n1nnn(-c2c(F)cccc2F)c1=O)c1ccccc1C(F)(F)F`, with 60 to 250 nM.
`CCN(C(=O)n1nnn(-c2c(F)cccc2F)c1=O)c1ccc(C#CC(C)(C)C)cc1F` had an IC50 of 60 to 250 nM.
The figure for `CCN(C(=O)n1nnn(-c2c(F)cccc2F)c1=O)c1ccc(Cl)cc1Cl` is 60 to 250 nM.
The figure for `CN(C(=O)n1nnn(-c2c(F)cccc2F)c1=O)c1ccc(F)cc1` is 60 to 250 nM; for `CCN(C(=O)n1nnn(-c2c(F)cccc2F)c1=O)c1ccc(CCc2ccccc2)cc1F` it is 60 to 250 nM.
Then `CCN(C(=O)n1nnn(-c2c(F)cccc2F)c1=O)c1ccccc1OC(F)(F)F`, with 60 to 250 nM; and `CCN(C(=O)n1nnn(-c2c(F)cccc2F)c1=O)c1ccccc1-c1ccccc1`, with 1000 to 10000 nM; and `CCCCC#Cc1ccc(N(C)C(=O)n2nnn(-c3c(F)cccc3F)c2=O)cc1`, with 250 to 1000 nM.
Turning to `CN(C(=O)n1nnn(-c2c(F)cccc2F)c1=O)c1ccc(C#Cc2ccccc2)cc1`, the IC50 was 60 to 250 nM.
Consider `CCN(C(=O)n1nnn(-c2c(F)cccc2F)c1=O)c1cccc(C)c1`, for which the IC50 is less than 60 nM.
The figure for `CCOC(=O)c1ccc(N(C(=O)n2nnn(-c3c(F)cccc3F)c2=O)N(C)C)cc1` is 60 to 250 nM; for `COc1ccccc1N(C)C(=O)n1nnn(-c2c(F)cccc2F)c1=O` it is 250 to 1000 nM.
In turn, `CCN(C(=O)n1nnn(-c2c(F)cccc2F)c1=O)c1ccc(C#CCC2CCCCC2)cc1F` had a concentration for half-maximal inhibition (IC50) of 60 to 250 nM.
Then `CCN(C(=O)n1nnn(-c2c(F)cccc2F)c1=O)c1ccccc1[N+](=O)[O-]`, with less than 60 nM.
The figure for `CCN(C(=O)n1nnn(-c2c(F)cccc2F)c1=O)c1ccc(Br)cc1F` is 60 to 250 nM.
The figure for `CN(C(=O)n1nnn(-c2c(F)cccc2F)c1=O)c1ccccc1Cl` is less than 60 nM.
In turn, `CCN(C(=O)n1nnn(-c2c(Cl)cccc2Cl)c1=O)c1cccc(C(=O)O)c1OC` showed a half-maximal inhibitory concentration (IC50) of 1000 to 10000 nM.
In turn, `CCN(C(=O)n1nnn(-c2c(Cl)cccc2Cl)c1=O)c1ccc(Cl)c(C(=O)O)c1` displayed an IC50 of 60 to 250 nM.
Then `CCN(C(=O)n1nnn(-c2c(Cl)cccc2Cl)c1=O)c1ccc(NS(=O)(=O)C(F)(F)F)cc1`, with 60 to 250 nM; and `CCN(C(=O)n1nnn(-c2c(Cl)cccc2Cl)c1=O)c1ccc(Cl)c(C(=O)OCc2ccccc2)c1`, with 60 to 250 nM; and `CCN(C(=O)n1nnn(-c2c(Cl)cccc2Cl)c1=O)c1ccc(C(=O)OCc2ccc(OC)cc2)c(Cl)c1`, with 60 to 250 nM.
Regarding `CCN(C(=O)n1nnn(-c2c(Cl)cccc2Cl)c1=O)c1ccccc1F`, the half-inhibitory concentration (IC50) lay in the range of 60 to 250 nM.
As for `CCN(C(=O)n1nnn(-c2c(Cl)cccc2Cl)c1=O)c1cc(C(=O)O)ccc1Cl`, the IC50 is less than 60 nM.

As usually defined, the IC50 is the concentration that gives 50% inhibition. A high value points to lower potency.
